What is called IC50 is the concentration needed to halve the response being measured.

Where two headings read alike, the source gives them in different places.

Test [1] relates to human prostate LNCap tumor cell line. The experiment in a line: In vitro cell culture growth assay (MTS), LNCap. As to conditions: Homo sapiens, LNCaP, 72 h, read-out: IC50 LNCap.
The next test addresses Human mTOR (FLAG-TOR) (Homo sapiens, UniProt P42345). The experiment in a line: mTOR kinase assay (DELFIA format, purified enzyme). It is filed as biochemical. As to conditions: read-out: IC50 mTOR.
Another test addresses PI3K-α (Homo sapiens, UniProt P42336). The experiment in a line: PI3K-alpha fluorescence polarization assay. Background: Polarisation of emitted light reports the rotation of a fluorescent probe.
A further test concerns the target PI3K-γ (Homo sapiens, UniProt P48736). Kind of test: PI3K-gamma fluorescence polarization assay.

Chain of Human mTOR (FLAG-TOR) (P42345 1360-2549 limits assumed): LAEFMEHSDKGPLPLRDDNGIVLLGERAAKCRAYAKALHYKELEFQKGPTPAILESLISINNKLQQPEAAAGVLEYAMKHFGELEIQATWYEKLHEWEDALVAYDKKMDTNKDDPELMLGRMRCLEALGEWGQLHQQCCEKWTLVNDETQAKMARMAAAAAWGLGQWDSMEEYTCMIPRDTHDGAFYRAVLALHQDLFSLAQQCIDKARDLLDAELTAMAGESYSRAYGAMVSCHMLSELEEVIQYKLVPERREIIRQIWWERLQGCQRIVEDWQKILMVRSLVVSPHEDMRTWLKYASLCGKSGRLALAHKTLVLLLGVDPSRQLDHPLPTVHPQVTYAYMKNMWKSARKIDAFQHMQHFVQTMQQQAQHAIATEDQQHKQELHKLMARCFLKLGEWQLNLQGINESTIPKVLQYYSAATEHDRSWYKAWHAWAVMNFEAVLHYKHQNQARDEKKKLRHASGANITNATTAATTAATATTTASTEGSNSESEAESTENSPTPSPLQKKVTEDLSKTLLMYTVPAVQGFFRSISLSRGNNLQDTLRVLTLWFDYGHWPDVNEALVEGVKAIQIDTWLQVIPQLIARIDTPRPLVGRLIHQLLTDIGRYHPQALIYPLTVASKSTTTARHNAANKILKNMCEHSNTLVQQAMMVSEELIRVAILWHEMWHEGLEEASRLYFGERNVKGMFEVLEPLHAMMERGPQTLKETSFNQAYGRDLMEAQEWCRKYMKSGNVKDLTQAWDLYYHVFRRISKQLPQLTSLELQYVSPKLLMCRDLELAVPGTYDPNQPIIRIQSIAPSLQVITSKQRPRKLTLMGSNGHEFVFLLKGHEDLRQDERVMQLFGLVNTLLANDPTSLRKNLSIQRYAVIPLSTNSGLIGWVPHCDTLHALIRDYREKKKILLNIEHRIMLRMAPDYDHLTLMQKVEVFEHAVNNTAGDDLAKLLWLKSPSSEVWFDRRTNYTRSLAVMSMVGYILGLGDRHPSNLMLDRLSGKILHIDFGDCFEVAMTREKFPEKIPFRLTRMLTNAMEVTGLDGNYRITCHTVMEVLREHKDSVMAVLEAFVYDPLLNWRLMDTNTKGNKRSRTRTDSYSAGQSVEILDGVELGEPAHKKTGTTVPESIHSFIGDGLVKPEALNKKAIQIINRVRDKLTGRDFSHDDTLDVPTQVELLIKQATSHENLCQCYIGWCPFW
Chain of PI3K-α (P42336 whole entry, species assumed): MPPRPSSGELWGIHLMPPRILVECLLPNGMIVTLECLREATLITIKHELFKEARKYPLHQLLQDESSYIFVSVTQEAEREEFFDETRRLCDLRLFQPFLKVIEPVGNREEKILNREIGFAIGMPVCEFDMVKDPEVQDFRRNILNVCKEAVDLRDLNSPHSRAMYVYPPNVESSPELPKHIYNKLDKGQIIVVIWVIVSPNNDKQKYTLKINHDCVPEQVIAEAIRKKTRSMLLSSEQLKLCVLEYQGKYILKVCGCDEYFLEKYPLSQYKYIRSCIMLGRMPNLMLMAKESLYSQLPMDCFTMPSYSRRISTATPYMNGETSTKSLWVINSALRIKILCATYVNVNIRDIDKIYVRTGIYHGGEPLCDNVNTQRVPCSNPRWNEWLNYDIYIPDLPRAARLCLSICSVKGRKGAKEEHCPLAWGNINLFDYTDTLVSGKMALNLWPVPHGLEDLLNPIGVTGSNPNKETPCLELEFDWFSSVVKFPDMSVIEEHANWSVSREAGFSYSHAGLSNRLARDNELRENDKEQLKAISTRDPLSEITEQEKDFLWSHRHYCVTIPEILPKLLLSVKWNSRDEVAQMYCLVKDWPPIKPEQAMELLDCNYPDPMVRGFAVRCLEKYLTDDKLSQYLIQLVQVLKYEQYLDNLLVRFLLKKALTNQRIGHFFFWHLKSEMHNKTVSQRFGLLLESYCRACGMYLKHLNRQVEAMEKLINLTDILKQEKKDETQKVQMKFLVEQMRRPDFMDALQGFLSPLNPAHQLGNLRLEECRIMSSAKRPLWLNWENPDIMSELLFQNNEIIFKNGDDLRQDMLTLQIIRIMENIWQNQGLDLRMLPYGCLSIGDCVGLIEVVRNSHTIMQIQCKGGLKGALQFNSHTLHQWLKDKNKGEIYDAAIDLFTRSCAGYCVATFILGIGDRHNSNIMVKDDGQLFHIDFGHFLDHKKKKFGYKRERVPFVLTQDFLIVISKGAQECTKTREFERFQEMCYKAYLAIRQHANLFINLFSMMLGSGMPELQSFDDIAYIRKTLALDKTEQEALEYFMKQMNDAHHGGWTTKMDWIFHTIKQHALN
Chain of PI3K-α (P27986 whole entry partner, species assumed): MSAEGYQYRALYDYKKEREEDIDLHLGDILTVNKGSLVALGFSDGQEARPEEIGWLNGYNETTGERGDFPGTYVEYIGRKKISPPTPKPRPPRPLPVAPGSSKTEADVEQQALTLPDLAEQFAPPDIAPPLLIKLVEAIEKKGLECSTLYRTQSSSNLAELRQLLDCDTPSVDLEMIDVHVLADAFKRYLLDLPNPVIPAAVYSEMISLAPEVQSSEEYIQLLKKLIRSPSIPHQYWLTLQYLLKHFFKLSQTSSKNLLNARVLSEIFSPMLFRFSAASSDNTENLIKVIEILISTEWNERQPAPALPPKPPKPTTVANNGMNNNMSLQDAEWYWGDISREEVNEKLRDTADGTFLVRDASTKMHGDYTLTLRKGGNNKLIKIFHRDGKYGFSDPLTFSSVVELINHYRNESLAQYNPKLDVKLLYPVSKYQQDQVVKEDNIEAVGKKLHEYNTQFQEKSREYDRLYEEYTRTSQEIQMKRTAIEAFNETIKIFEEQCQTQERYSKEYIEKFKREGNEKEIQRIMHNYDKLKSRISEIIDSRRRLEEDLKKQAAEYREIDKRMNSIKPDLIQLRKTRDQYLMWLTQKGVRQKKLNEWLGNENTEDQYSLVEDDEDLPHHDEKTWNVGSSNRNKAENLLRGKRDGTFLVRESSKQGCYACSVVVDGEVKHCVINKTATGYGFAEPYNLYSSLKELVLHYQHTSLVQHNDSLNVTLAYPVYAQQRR
Chain of PI3K-γ (P48736 whole entry, species assumed): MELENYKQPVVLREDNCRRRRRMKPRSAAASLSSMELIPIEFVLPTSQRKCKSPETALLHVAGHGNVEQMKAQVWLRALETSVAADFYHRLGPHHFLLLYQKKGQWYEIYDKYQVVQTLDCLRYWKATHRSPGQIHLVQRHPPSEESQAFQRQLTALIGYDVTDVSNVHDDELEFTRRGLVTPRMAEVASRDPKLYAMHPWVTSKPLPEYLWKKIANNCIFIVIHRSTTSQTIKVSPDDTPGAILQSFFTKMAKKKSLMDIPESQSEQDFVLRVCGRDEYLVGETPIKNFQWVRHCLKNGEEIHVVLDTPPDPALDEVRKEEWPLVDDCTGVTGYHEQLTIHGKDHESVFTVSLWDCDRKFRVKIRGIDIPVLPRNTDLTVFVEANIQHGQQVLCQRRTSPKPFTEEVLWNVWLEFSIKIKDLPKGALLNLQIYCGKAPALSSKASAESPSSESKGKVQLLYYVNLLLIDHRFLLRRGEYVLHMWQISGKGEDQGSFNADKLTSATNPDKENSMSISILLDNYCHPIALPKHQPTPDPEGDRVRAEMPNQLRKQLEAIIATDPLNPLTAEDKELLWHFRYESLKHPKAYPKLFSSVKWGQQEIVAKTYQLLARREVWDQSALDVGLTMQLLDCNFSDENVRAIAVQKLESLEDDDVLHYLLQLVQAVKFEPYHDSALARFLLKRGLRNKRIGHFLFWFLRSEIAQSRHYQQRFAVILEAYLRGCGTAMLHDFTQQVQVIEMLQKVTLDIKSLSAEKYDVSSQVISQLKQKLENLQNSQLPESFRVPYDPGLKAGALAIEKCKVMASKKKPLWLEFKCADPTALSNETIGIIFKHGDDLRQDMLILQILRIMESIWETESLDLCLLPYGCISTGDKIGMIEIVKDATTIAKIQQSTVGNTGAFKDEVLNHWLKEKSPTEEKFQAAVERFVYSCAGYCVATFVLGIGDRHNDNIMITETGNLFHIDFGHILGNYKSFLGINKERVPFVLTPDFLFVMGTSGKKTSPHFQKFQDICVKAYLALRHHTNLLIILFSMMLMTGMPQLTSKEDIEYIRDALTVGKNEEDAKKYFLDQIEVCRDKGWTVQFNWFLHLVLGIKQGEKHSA

On to `COC(=O)CNC1CCN(c2nc(-c3ccc(NC(=O)Nc4ccncc4)cc3)nc(N3CC4CCC(C3)O4)n2)CC1` [Example 125, Methyl 2-(1-(4-(8-oxa-3-azabicyclo[3.2.1]octan-3-yl)-6-(4-(3-pyridin-4-ylureido)phenyl)-1,3,5-triazin-2-yl)piperidin-4-ylamino)acetate], for which the IC50 in test [1] came out at 1000 nM; on Human mTOR (FLAG-TOR), 16 nM; at PI3K-α (read-out: IC50 PI3Kα) it was 840 nM; at PI3K-γ (read-out: IC50 PI3Kγ), 8750 nM.
The like results for `NC(=O)CNC1CCN(c2nc(-c3ccc(NC(=O)Nc4ccncc4)cc3)nc(N3CC4CCC(C3)O4)n2)CC1` [Example 126, 2-(1-(4-(8-oxa-3-azabicyclo[3.2.1]octan-3-yl)-6-(4-(3-pyridin-4-ylureido)phenyl)-1,3,5-triazin-2-yl)piperidin-4-ylamino)acetamide] were, in that order, 1300 nM, 19.5 nM, 510 nM and 5510 nM.
With `CC(C)(C)OC(=O)CNC1CCN(c2nc(-c3ccc(NC(=O)Nc4ccncc4)cc3)nc(N3CC4CCC(C3)O4)n2)CC1` [Example 127, Tert-butyl 2-(1-(4-(8-oxa-3-azabicyclo[3.2.1]octan-3-yl)-6-(4-(3-pyridin-4-ylureido)phenyl)-1,3,5-triazin-2-yl)piperidin-4-ylamino)acetate], the IC50 in test [1] was determined as 1350 nM; on Human mTOR (FLAG-TOR), 51.5 nM; at PI3K-α (read-out: IC50 PI3Kα) it was 1390 nM; on PI3K-γ (read-out: IC50 PI3Kγ), 4730 nM.
Taken in the same sequence, the figures for `COC(=O)Nc1ccc(-c2nc(-c3ccc(NC(=O)Nc4ccc(N5CCN(C)CC5)cc4)cc3)nc(N3CC4CCC(C3)O4)n2)cc1` [Example 145, methyl(4-{4-[4-({[4-(4-methylpiperazin-1-yl)phenyl]carbamoyl}amino)phenyl]-6-(8-oxa-3-azabicyclo[3.2.1]oct-3-yl)-1,3,5-triazin-2-yl}phenyl)carbamate] were 120 nM, 9 nM, 574 nM and 1000 nM.
Taken in the same sequence, the figures for `CN1CCN(c2ccc(NC(=O)Nc3ccc(-c4nc(-c5ccc(NC(=O)Nc6ccc(N7CCN(C)CC7)cc6)cc5)nc(N5CC6CCC(C5)O6)n4)cc3)cc2)CC1` [Example 147, N′,N′″-{[6-(8-oxa-3-azabicyclo[3.2.1]oct-3-yl)-1,3,5-triazine-2,4-diyl]di-4,1-phenylene}bis{1-[4-(4-methylpiperazin-1-yl)phenyl]urea}] were 1000 nM, 6 nM, 1930 nM and 6830 nM.
The like results for `CN1CCN(c2ccc(NC(=O)Nc3ccc(-c4nc(-c5ccc(NC(=O)Nc6ccncc6)cc5)nc(N5CC6CCC(C5)O6)n4)cc3)cc2)CC1` [Example 148, 1-[4-(4-methylpiperazin-1-yl)phenyl]-3-{4-[4-(8-oxa-3-azabicyclo[3.2.1]oct-3-yl)-6-{4-[(pyridin-4-ylcarbamoyl)amino]phenyl}-1,3,5-triazin-2-yl]phenyl}urea] were, in that order, 680 nM, 8 nM, 300 nM and 620 nM.
On to `NCCNc1nc(-c2ccc(NC(=O)Nc3cccnc3)cc2)nc(N2CC3CCC(C2)O3)n1` [Example 149, 1-(4-{4-[(2-aminoethyl)amino]-6-(8-oxa-3-azabicyclo[3.2.1]oct-3-yl)-1,3,5-triazin-2-yl}phenyl)-3-pyridin-3-ylurea], for which the concentration for half-maximal inhibition (IC50) in test [1] stood at 32000 nM; on Human mTOR (FLAG-TOR), 80 nM; at PI3K-α (read-out: IC50 PI3Kα) it was 889 nM; on PI3K-γ (read-out: IC50 PI3Kγ), 1400 nM.
`O=C(Nc1ccc(-c2nc(Nc3ccccc3)nc(N3CC4CCC(C3)O4)n2)cc1)Nc1cccnc1` [Example 150, 1-{4-[4-anilino-6-(8-oxa-3-azabicyclo[3.2.1]oct-3-yl)-1,3,5-triazin-2-yl]phenyl}-3-pyridin-3-ylurea]: the IC50 in test [1] was 290 nM; on Human mTOR (FLAG-TOR), 5 nM; on PI3K-α it was 832 nM; at PI3K-γ, over 10000 nM.
Regarding `O=C(Nc1ccc(-c2nc(NC3CNC3)nc(N3CC4CCC(C3)O4)n2)cc1)Nc1cccnc1` [Example 154, 1-{4-[4-(azetidin-3-ylamino)-6-(8-oxa-3-azabicyclo[3.2.1]oct-3-yl)-1,3,5-triazin-2-yl]phenyl}-3-pyridin-3-ylurea], the IC50 in test [1] is 22000 nM; on Human mTOR (FLAG-TOR) it was 64 nM; on PI3K-α (read-out: IC50 PI3Kα), 275 nM; at PI3K-γ (read-out: IC50 PI3Kγ) it was 3820 nM.
For `O=C(Nc1ccc(-c2nc(NCCN3CCOCC3)nc(N3CC4CCC(C3)O4)n2)cc1)Nc1cccnc1` [Example 155, 1-(4-{4-[(2-morpholin-4-ylethyl)amino]-6-(8-oxa-3-azabicyclo[3.2.1]oct-3-yl)-1,3,5-triazin-2-yl}phenyl)-3-pyridin-3-ylurea], the IC50 in test [1] amounted to 400 nM; at Human mTOR (FLAG-TOR) it was 16 nM; at PI3K-α (read-out: IC50 PI3Kα), 2300 nM; on PI3K-γ (read-out: IC50 PI3Kγ), 4940 nM.
The like results for `O=C(Nc1ccc(-c2nc(NN3CCN(C4CCCC4)CC3)nc(N3CC4CCC(C3)O4)n2)cc1)Nc1cccnc1` [Example 157, 1-(4-{4-[(4-cyclopentylpiperazin-1-yl)amino]-6-(8-oxa-3-azabicyclo[3.2.1]oct-3-yl)-1,3,5-triazin-2-yl}phenyl)-3-pyridin-3-ylurea] were, in that order, 2700 nM, 170 nM, 1450 nM and 7090 nM.
The like results for `CC(C)Oc1nc(-c2ccc(NC(=O)Nc3ccncc3)cc2)nc(N2CC3CCC(C2)O3)n1` [Example 158, 1-{4-[4-isopropoxy-6-(8-oxa-3-azabicyclo[3.2.1]oct-3-yl)-1,3,5-triazin-2-yl]phenyl}-3-pyridin-4-ylurea] were, in that order, 49 nM, 7 nM, 300 nM and 1290 nM.
`CC(C)Oc1nc(-c2ccc(NC(=O)Nc3ccc(N4CCN(C)CC4)cc3)cc2)nc(N2CC3CCC(C2)O3)n1` [Example 159, 1-{4-[4-isopropoxy-6-(8-oxa-3-azabicyclo[3.2.1]oct-3-yl)-1,3,5-triazin-2-yl]phenyl}-3-[4-(4-methylpiperazin-1-yl)phenyl]urea]: the IC50 worked out at 1.2 nM in test [1], 2 nM on Human mTOR (FLAG-TOR), 133 nM on PI3K-α (read-out: IC50 PI3Kα) and 3920 nM at PI3K-γ (read-out: IC50 PI3Kγ).
Taken in the same sequence, the figures for `O=C(Nc1ccncc1)Nc1ccc(-c2nc(Cl)nc(N3CC4CCC(C3)O4)n2)cc1` [Example 160, 1-{4-[4-chloro-6-(8-oxa-3-azabicyclo[3.2.1]oct-3-yl)-1,3,5-triazin-2-yl]phenyl}-3-pyridin-4-ylurea] were 220 nM, 7 nM, 358 nM and 9070 nM.
Take `O=C(Nc1ccc(-c2nc(NCC3CCNCC3)nc(N3CC4CCC(C3)O4)n2)cc1)Nc1cccnc1` [Example 169, 1-(4-{4-(8-oxa-3-azabicyclo[3.2.1]oct-3-yl)-6-[(piperidin-4-ylmethyl)amino]-1,3,5-triazin-2-yl}phenyl)-3-pyridin-3-ylurea]: the IC50 in test [1] came to 5000 nM; on Human mTOR (FLAG-TOR) it was 8.3 nM; on PI3K-α (read-out: IC50 PI3Kα), 408 nM; on PI3K-γ (read-out: IC50 PI3Kγ) it was 7960 nM.
